Data taken from patent publication US20230310467A1 (priority 2022, published 2023).

Assay: Stability by UV spectroscopy after storage under normal conditions and stress tests
Assay type: physicochemical
Conditions: stress / rapid test conditions

CCC(CC)COC(=O)[C@H](C)N[P@](=O)(OC[C@H]1O[C@@](C#N)(c2ccc3c(N)ncnn23)[C@H](O)[C@@H]1O)Oc1ccccc1 [RDV, remdesivir]
stability of the solution according to UV spectroscopic data: limitedly stable
